The source made the active and inactive calls. No cut-off for these calls is given here.
Tests used:
Calf thymus DNA [1] = assay: Binding affinity to calf thymus DNA assessed as DNA intercalation by measuring hypochromic shift incubated for 1.5 hrs by spectrophotometric analysis; type: tissue-based; settings: Bos taurus
MCF7 [2] = assay: Antiproliferative activity against human MCF-7 cells assessed as reduction in cell viability measured after 72 hrs by MTS assay; type: functional, cell-based; settings: MCF7, 72 h
PANC-1 = assay: Antiproliferative activity against human PANC-1 cells assessed as reduction in cell viability measured after 72 hrs by MTS assay; type: functional, cell-based; settings: PANC-1, 72 h
A549 = assay: Antiproliferative activity against human A549 cells assessed as reduction in cell viability measured after 72 hrs by MTS assay; type: functional, cell-based; settings: A549, 72 h
U-251 = assay: Antiproliferative activity against human U251 cells assessed as reduction in cell viability measured after 72 hrs by MTS assay; type: functional, cell-based; settings: U-251, 72 h
MCF7 [3] = assay: Induction of apoptosis in human MCF-7 cells assessed as proportion of necrotic cells at 5 uM incubated for 48 hrs by Annexin V Muse cell analyzer based flow cytometry (reference value: 0.45%); type: functional
MCF7 [4] = assay: Antiproliferative activity against human MCF-7 cells assessed as reduction in cell viability at 0.1 uM measured after 72 hrs in presence of FeSO4 by MTS assay; type: functional, cell-based
MCF7 [5] = assay: Induction of apoptosis in human MCF7 cells assessed as p53 activation at 2.5 uM incubated for 24 hrs by immunoblot analysis; type: functional, cell-based
MCF7 [6] = assay: Antiproliferative activity against human MCF-7 cells assessed as reduction in cell viability at 0.1 uM measured after 72 hrs in presence of CdSO4 by MTS assay; type: functional, cell-based
MCF7 [7] = assay: Potency index, ratio of oxaliplatin IC50 to test compound IC50 for anticancer activity against human MCF7 cells measured after 72 hrs by MTS assay; type: functional
MCF7 [8] = assay: Induction of apoptosis in human MCF7 cells assessed as increase in AIP protein expression at 2.5 uM incubated for 24 hrs by immunoblot analysis; type: functional, cell-based
MCF7 [9] = assay: Induction of apoptosis in human MCF-7 cells assessed as proportion of late apoptotic cells at 2.5 uM incubated for 48 hrs by Annexin V Muse cell analyzer based flow cytometry (reference value: 2.3%); type: functional
MCF7 [10] = assay: Antiproliferative activity against human MCF-7 cells assessed as reduction in cell viability measured after 72 hrs in presence of CuSO4 by MTS assay; type: functional, cell-based; settings: MCF7, 72 h
MCF7 [11] = assay: Induction of cell cycle arrest in human MCF-7 cells assessed as accumulation at S phase at 1 uM incubated for 24 hrs by Muse cell analyzer based flow cytometry (reference value: 11.1%); type: functional
MCF7 [12] = assay: Antiproliferative activity against human MCF-7 cells assessed as reduction in cell viability measured after 72 hrs in presence of CdSO4 by MTS assay; type: functional, cell-based; settings: MCF7, 72 h
HCT-116 = assay: Antiproliferative activity against human HCT 116 cells assessed as reduction in cell viability measured after 72 hrs by MTS assay; type: functional, cell-based; settings: HCT-116, 72 h
MCF7 [13] = assay: Induction of cell cycle arrest in human MCF-7 cells assessed as accumulation at G0/G1 phase at 2.5 uM incubated for 24 hrs by Muse cell analyzer based flow cytometry (reference value: 47.4%); type: functional
MCF7 [14] = assay: Induction of cell cycle arrest in human MCF-7 cells assessed as accumulation at G0/G1 phase at 5 uM incubated for 24 hrs by Muse cell analyzer based flow cytometry (reference value: 47.4%); type: functional
MCF7 [15] = assay: Induction of apoptosis in human MCF-7 cells assessed as proportion of early apoptotic cells at 1 uM incubated for 48 hrs by Annexin V Muse cell analyzer based flow cytometry (reference value: 3.05%); type: functional
MCF7 [16] = assay: Induction of apoptosis in human MCF7 cells assessed as decrease in p21 expression at 2.5 uM incubated for 24 hrs by immunoblot analysis; type: functional, cell-based
MCF7 [17] = assay: Induction of apoptosis in human MCF-7 cells incubated for 48 hrs by Annexin V Muse cell analyzer based flow cytometry; type: functional; settings: dose 1-5 µM
MCF7 [18] = assay: Induction of apoptosis in human MCF-7 cells assessed as proportion of viable cells at 2.5 uM incubated for 48 hrs by Annexin V Muse cell analyzer based flow cytometry (reference value: 94.2%); type: functional
MCF7 [19] = assay: Induction of cell cycle arrest in human MCF-7 cells assessed as increase in cell accumulation at G0/G1 phase incubated for 24 hrs by Muse cell analyzer based flow cytometry; type: functional; settings: dose 1-5 µM
MCF7 [20] = assay: Induction of apoptosis in human MCF7 cells assessed as cytochrome c release into cytosol at 2.5 uM incubated for 24 hrs by immunoblot analysis; type: functional, cell-based
MCF7 [21] = assay: Induction of apoptosis in human MCF-7 cells assessed as proportion of late apoptotic cells at 5 uM incubated for 48 hrs by Annexin V Muse cell analyzer based flow cytometry (reference value: 2.3%); type: functional
MCF7 [22] = assay: Antiproliferative activity against human MCF-7 cells assessed as reduction in cell viability at 0.1 uM measured after 72 hrs in presence of ZnCl2 by MTS assay; type: functional, cell-based
MCF7 [23] = assay: Antiproliferative activity against human MCF-7 cells assessed as reduction in cell viability measured after 72 hrs in presence of FeSO4 by MTS assay; type: functional, cell-based; settings: MCF7, 72 h
MCF7 [24] = assay: Induction of apoptosis in human MCF-7 cells assessed as proportion of viable cells at 1 uM incubated for 48 hrs by Annexin V Muse cell analyzer based flow cytometry (reference value: 94.2%); type: functional
MCF7 [25] = assay: Antiproliferative activity against human MCF-7 cells assessed as reduction in cell viability measured after 72 hrs in presence of FeCl3 by MTS assay; type: functional, cell-based; settings: MCF7, 72 h
MCF7 [26] = assay: Induction of cell cycle arrest in human MCF-7 cells assessed as accumulation at S phase at 5 uM incubated for 24 hrs by Muse cell analyzer based flow cytometry (reference value: 11.1%); type: functional
Calf thymus DNA [27] = assay: Binding affinity to calf thymus DNA assessed as DNA intercalation by measuring bathochromic shift incubated for 1.5 hrs by spectrophotometric analysis; type: tissue-based; settings: Bos taurus
MCF7 [28] = assay: Induction of cell cycle arrest in human MCF-7 cells assessed as accumulation at G2/M phase at 1 uM incubated for 24 hrs by Muse cell analyzer based flow cytometry (reference value: 36.9%); type: functional
MCF7 [29] = assay: Induction of cell cycle arrest in human MCF-7 cells assessed as accumulation at S phase at 2.5 uM incubated for 24 hrs by Muse cell analyzer based flow cytometry (reference value: 11.1%); type: functional
MCF7 [30] = assay: Potency index, ratio of doxorubicin IC50 to test compound IC50 for anticancer activity against human MCF7 cells measured after 72 hrs by MTS assay; type: functional
MCF7 [31] = assay: Induction of ROS generation in human MCF7 cells at 1 uM measured after 1 hr by CellRox Green reagent/Hoechst 33342 staining based fluorescence analysis; type: functional, cell-based
MCF7 [32] = assay: Antiproliferative activity against human MCF-7 cells assessed as reduction in cell viability at 0.1 uM measured after 72 hrs in presence of CuSO4 by MTS assay; type: functional, cell-based
MCF7 [33] = assay: Induction of apoptosis in human MCF-7 cells assessed as proportion of early apoptotic cells at 2.5 uM incubated for 48 hrs by Annexin V Muse cell analyzer based flow cytometry (reference value: 3.05%); type: functional
MCF7 [34] = assay: Induction of apoptosis in human MCF7 cells assessed as late apoptotic cells by measuring condensed and fragmented nuclei formation at 5 uM incubated for 24 hrs by AO/EB staining based fluorescence microscopy; type: functional, cell-based
DNA [35] = assay: Induction of Escherichia coli supercoiled pUC19 plasmid DNA cleavage assessed as open circular form formation at 50 uM incubated for 60 mins by agarose gel electrophoresis analysis; type: nucleic-acid assay
MCF7 [36] = assay: Induction of cell cycle arrest in human MCF-7 cells assessed as accumulation at G2/M phase at 2.5 uM incubated for 24 hrs by Muse cell analyzer based flow cytometry (reference value: 36.9%); type: functional
MCF7 [37] = assay: Induction of apoptosis in human MCF-7 cells assessed as proportion of late apoptotic cells at 1 uM incubated for 48 hrs by Annexin V Muse cell analyzer based flow cytometry (reference value: 2.3%); type: functional
MCF7 [38] = assay: Antiproliferative activity against human MCF-7 cells assessed as reduction in cell viability measured after 72 hrs in presence of ZnCl2 by MTS assay; type: functional, cell-based; settings: MCF7, 72 h
MCF7 [39] = assay: Antiproliferative activity against human MCF-7 cells assessed as reduction in cell viability at 0.1 uM measured after 72 hrs in presence of FeCl3 by MTS assay; type: functional, cell-based
NHDF = assay: Cytotoxicity against human NHDF cells assessed as reduction in cell viability measured after 72 hrs by MTS assay; type: cell-based
MCF7 [40] = assay: Induction of apoptosis in human MCF-7 cells assessed as proportion of early apoptotic cells at 5 uM incubated for 48 hrs by Annexin V Muse cell analyzer based flow cytometry (reference value: 3.05%); type: functional
MCF7 [41] = assay: Induction of cell cycle arrest in human MCF-7 cells assessed as accumulation at G0/G1 phase at 1 uM incubated for 24 hrs by Muse cell analyzer based flow cytometry (reference value: 47.4%); type: functional
DNA [42] = assay: Induction of Escherichia coli supercoiled pUC19 plasmid DNA cleavage assessed as linear form formation at 50 uM incubated for 60 mins by agarose gel electrophoresis analysis; type: nucleic-acid assay
MCF7 [43] = assay: Induction of apoptosis in human MCF-7 cells assessed as proportion of viable cells at 5 uM incubated for 48 hrs by Annexin V Muse cell analyzer based flow cytometry (reference value: 94.2%); type: functional
MCF7 [44] = assay: Induction of ROS generation in human MCF7 cells at 1 uM measured after 24 hrs by CellRox Green reagent/Hoechst 33342 staining based fluorescence analysis relative to control; type: functional
MCF7 [45] = assay: Induction of apoptosis in human MCF7 cells assessed as early apoptotic cells by measuring chromatin condensation and nuclear fragmentation at 5 uM incubated for 24 hrs by AO/EB staining based fluorescence microscopy; type: functional, cell-based
MCF7 [46] = assay: Induction of cell cycle arrest in human MCF-7 cells assessed as accumulation at G2/M phase at 5 uM incubated for 24 hrs by Muse cell analyzer based flow cytometry (reference value: 36.9%); type: functional
MCF7 [47] = assay: Induction of apoptosis in human MCF-7 cells assessed as proportion of necrotic cells at 1 uM incubated for 48 hrs by Annexin V Muse cell analyzer based flow cytometry (reference value: 0.45%); type: functional
MCF7 [48] = assay: Induction of apoptosis in human MCF-7 cells assessed as proportion of necrotic cells at 2.5 uM incubated for 48 hrs by Annexin V Muse cell analyzer based flow cytometry (reference value: 0.45%); type: functional
[49] = Drug uptake in human MCF7 cells mitochondria at 25 uM incubated for 2 hrs by MitoTracker Orange/LysoTracker staining based fluorescence microscopy; type: ADME; settings: mcf7, 2 h

COc1cccc2c1C(=O)c1c(O)c3c(c(O)c1C2=O)C[C@@](O)(C(=O)CO)C[C@@H]3O[C@H]1C[C@H](N)[C@H](O)[C@H](C)O1 [DOXORUBICIN]
Activity (Calf thymus DNA [1]): 34.2%
IC50 (MCF7 [2]): 410 nM
IC50 (PANC-1): 730 nM
IC50 (A549): 1060 nM
IC50 (U-251): 50 nM

CCCCCCCCCCn1cc(-c2ccc(-c3cc(-c4ccccn4)nc(-c4ccccn4)c3)cc2)nn1
Activity (MCF7 [3]): 6.9%
Activity (MCF7 [4]): Active
Activity (MCF7 [5]): inactive
Activity (MCF7 [6]): Active
Ratio IC50 (MCF7 [7]): 26
Activity (MCF7 [8]): Active
Activity (MCF7 [9]): 16.25%
IC50 (MCF7 [10]): 39 nM
Activity (MCF7 [11]): 16.3%
IC50 (MCF7 [12]): 1000 nM
IC50 (HCT-116): 270 nM
Activity (Calf thymus DNA [1]): 18.2%
Activity (MCF7 [13]): 57.4%
IC50 (MCF7 [2]): 40 nM
Activity (MCF7 [14]): 66.2%
Activity (MCF7 [15]): 3.45%
Activity (MCF7 [16]): Active
Activity (MCF7 [17]): Dose-dependent effect
Activity (MCF7 [18]): 69.9%
Activity (MCF7 [19]): Dose-dependent effect
Activity (MCF7 [20]): Active
Activity (MCF7 [21]): 15.3%
Activity (MCF7 [22]): Active
IC50 (MCF7 [23]): 1000 nM
IC50 (PANC-1; read-out: IC50): 440 nM
Activity (MCF7 [24]): 79.1%
IC50 (MCF7 [25]): 1000 nM
Activity (MCF7 [26]): 14.3%
Activity (Calf thymus DNA [27]): Active
Activity (MCF7 [28]): 34.3%
Activity (MCF7 [29]): 13.7%
IC50 (A549): 750 nM
Ratio IC50 (MCF7 [30]): 10
Activity (MCF7 [31]): Active
IC50 (U-251): 140 nM
Activity (MCF7 [32]): Active
Activity (MCF7 [33]): 8.95%
Activity (MCF7 [34]): Active
Activity (DNA [35]): Active
Activity (MCF7 [36]): 25.2%
Activity (MCF7 [37]): 8.55%
IC50 (MCF7 [38]): 1000 nM
Activity (MCF7 [39]): Active
IC50 (NHDF): 20800 nM
Activity (MCF7 [40]): 30.2%
Activity (MCF7 [41]): 45.5%
Activity (DNA [42]): Active
Activity (MCF7 [43]): 47.6%
Activity (MCF7 [44]): 140%
Activity (MCF7 [45]): Active
Activity (MCF7 [46]): 24%
Activity (MCF7 [47]): 8.9%
Activity (MCF7 [48]): 4.9%
Drug uptake [49]: Active
